# Laboratory results: patent US11931325B2, “Hair-growth promoting composition and usage thereof” (Eaderm Co., Ltd., priority 2015, dated 2024)
# Columns and labels:
# [1] = system: ob/ob mouse; test: Hair growth experiment using an iNOS inhibitor in shaved/depilated ob/ob mice; format: in vivo; conditions: for time until deposition of melanin pigments in the skin was observed: hair removed at 8 weeks of age, intraperitoneal in saline (10, 20 and 30 mg/kg for 1400W, L-NIL, BYK191023), time from start of administration; for area of hair growth compared to 1400W: 4 weeks
# Method: For this experiment, the ob/ob mouse purchased from Sankyo Labo Service Corporation was used. The whole back of the mouse was shaved using an electric shaver under anesthesia (mixed anesthesia of ketamine hydrochloride and xylazine hydrochloride) at 8 weeks of age, and the hair was removed with a commercially available depilatory cream (Epilat hair removal cream from Kracie Holdings, Ltd.). Administration or application of each iNOS inhibitor was carried out on the day the experiment began. The usage and dosage of the iNOS inhibitors used are as described below. Selective iNOS inhibitors, 1400W, L-NIL and BYK191023, were purchased from Tocris Bioscience and dissolved in saline solution, and each of them was administered intraperitoneally at 10 mg/kg, 20 mg/kg and 30 mg/kg. For the control group, saline solution was administered intraperitoneally. Consecutive administration for five days from Monday to Friday was continued for one month. A similarly selective iNOS inhibitor, aminoguanidine, was purchased from Tokyo Chemical Industry Co., Ltd. and dissolved in saline solution to 10% (w/v), and 100 μl was applied to the epilation area. For the control group, saline solution was used. Consecutive application for five days from Monday to Friday was continued for one month. The back was photographed once a week and observation was continued until 12 weeks of age. Every seven days from the start of the administration, the state of hair growth in the shaved area was rated using the hair growth score standard below.
# (Hair Growth Score Standard)
# 1=hair growth in less than 10% of the shaved area
# 2=hair growth in equal to or more than 10% and less than 20% of the shaved area
# 3=hair growth in equal to or more than 20% and less than 30% of the shaved area
# 4=hair growth in equal to or more than 30% and less than 40% of the shaved area
# 5=hair growth in equal to or more than 40% and less than 50% of the shaved area
# 6=hair growth in equal to or more than 50% and less than 60% of the shaved area
# 7=hair growth in equal to or more than 60% and less than 70% of the shaved area
# 8=hair growth in equal to or more than 70% and less than 80% of the shaved area
# 9=hair growth in equal to or more than 80% and less than 90% of the shaved area
# 10=hair growth in equal to or more than 90% of the shaved area
# [2] = system: C3H mouse and C57BL/6 mouse; test: Hair growth experiment using wild-type mice (application of aminoguanidine); format: in vivo; conditions: C3H and C57BL/6 mice, 10% (w/v) in saline, 100 μl applied to the epilation area, five days a week for three weeks
# Method: In this experiment, the same method as Example 2 was used, except that the C3H mouse and C57BL/6 mouse were used. The whole back of the mouse was shaved using an electric shaver under anesthesia (mixed anesthesia of ketamine hydrochloride and xylazine hydrochloride) at 8 weeks of age, and the hair was removed with a commercially available depilatory cream (Epilat hair removal cream from Kracie Holdings, Ltd.). Application of aminoguanidine was carried out on the day the experiment began. The usage and dosage of the aminoguanidine used are as described below. Aminoguanidine was purchased from Tokyo Chemical Industry Co., Ltd. and dissolved to 10% (w/v) in saline solution, and 100 μl was applied to the epilation area. For the control group, saline solution was used. Consecutive application for five days from Monday to Friday was continued for three weeks, and the back was photographed daily.
# [3] = 10% (w/v) in saline, 100 μl applied to the epilation area, time from start of application
compound,measurement,setting,value
CC(=N)NCc1cccc(CN)c1 [1400W],time until widespread hair growth was confirmed,"[1]; intraperitoneal administration, five days a week for one month",four
COc1ccnc(CCc2nc3ncccc3[nH]2)c1 [BYK191023],time until deposition of melanin pigments in the skin was observed,[1]; five days a week for one month,three
same,area of hair growth compared to 1400W,[1]; intraperitoneal administration,less
CC(=N)NCCCC[C@H](N)C(=O)O [L-NIL],time until deposition of melanin pigments in the skin was observed,[1]; five days a week for one month,three
same,area of hair growth compared to 1400W,[1]; intraperitoneal administration,less
N=C(N)NN [aminoguanidine],shortening of the telogen phase compared to the control group,[2],two to three
same,time until hair growth was confirmed,[1]; [3],two
same,time until hair returned to almost the same as the original condition,[1]; [3],four
same,time until widespread hair growth was confirmed,[1]; [3],three
